Laboratory results as given in patent publication US9150528B2, “Compound having detrusor muscle-contracting activity and urethral sphincter muscle-relaxing activity” (ONO PHARMACEUTICAL CO., LTD., priority 2009, dated 2015).

Columns and labels:
[1] = system: underactive bladder models; assay: Residual urinary volumes and bladder capacities in underactive bladder models (cystometry); format: in vivo, rat; settings: 0.01 mg/kg, oral, underactive bladder model rats, versus normal group
Procedure: The underactive bladder models were constructed in accordance with the following procedure. Female Wistar rats (8 to 9 weeks age) were anesthetized by intraperitoneal administration of Somnopentyl (40 mg/kg), followed by dorsal shaving, and fixed in abdominal positions. Each of the dorsal areas was disinfected with chlorhexidine gluconate (5% hibitane liquid). The waist area was median-incised to expose the spinal column. After excision of the fifth lumbar spinous process, a silicone rubber was inserted into the sixth lumbar direction from a hole bored by a mini drill. For the purpose of avoiding infections, after completion of the surgical operation, benzylpenicillin potassium (25000 U/0.25 mL/body) was added dropwise to the incised area. The muscle and skin of the incised area were sutured with silk threads, and iodine tincture was applied to the sutured area. After the operation, maintenance of voiding was carried out by manual compressions three times daily. For the purpose of avoiding infections, potassium penicillin G (1.25 units/body) was administered subcutaneously. More than 5 days prior to cystometric evaluation, a catheter for cystometrogram was indwelled in the bladder. Anesthesia with sodium pentobarbital (40 mg/kg by intraperitoneal administration) and incision along the midline of the abdomen were carried out, followed by incision of the apex of the bladder. A catheter for cystometrogram filled with physiological saline was inserted into the bladder from a hole of the apical area, and fixed by ligation using silk suture threads. […]
The rats were anesthetized with ether and housed in a Bollmann cage 2 weeks after the construction of the models. To the front end of each of the bladder catheters, a pressure transducer via a three-way cock was connected, and the intravesical pressure was recorded using a strain pressure amplifier•recorder. […]
[…] After 1 hr, physiological saline was perfused into the bladder at a flow rate of 2 mL/h and voiding parameters (bladder capacity and residual urinary volume) were measured. […] Voiding parameters were calculated for each cystometry. […]

normal rats = assay: Blood pressures and heart rates in normal rats; format: in vivo, rat; settings: oral; for effect on the blood pressure / increase in heart rate: 0.3 mg/kg
Procedure: The blood pressures and heart rates of female Wistar rats were measured in accordance with the following procedure. On the day of measurement, indwelling of catheters for blood pressure•heart rate measurement was carried out under anesthesia with ether. The back of the neck of each rat was incised; a feeding catheter (Atom Medical Corporation) filled with heparinized physiological saline was introduced from the back of the neck; the catheter was inserted into the common carotid artery; and the surgical incision was closed. The measurements were carried out in a Bollmann cage under the conscious state, and the evaluations were carried out after confirming that the individual parameters were stabilized. After confirming the stabilization of blood pressure and heart rate, the test compound which was prepared using injectable water containing equimolar NaOH was orally administered at a dose of 5 mL/kg.
The catheter drawn from the back of the neck was connected to a pressure transducer (DX-200, NIHON KOHDEN CORP.), and the blood pressures and heart rates were measured using an amplifier for pressure measurement (Gould Instrument). The blood pressures and heart rates were recorded using a recorder (LINEARCORDERWR3320, GRAPHTEC). For each individual, rates of increase and decrease in average blood pressure and heart rate before administration and 30, 60, 120, and 180 min after administration were calculated with respect to the values of each individual before administration. Changes in blood pressure and heart rate before and after administration of the test compound were evaluated.

[2] = system: human lyophilized liver cells; assay: Stability evaluation in lyophilized liver cells; format: in vitro ADME; settings: 37° C.
Procedure: KHEM5100 medium which includes human lyophilized liver cells after dissolving (final concentration of living cells: 1×10^6 cells/mL) and the test compound (acetonitrile or methanol solution, final concentration≦1%) was incubated at 37° C. Immediately after reaction and with the passage of reaction time, some portions were sampled from the medium. The concentrations of the test compound in the samples were measured by LC/MS/MS. The residual rate of the test compound relative to immediately after reaction was calculated by the following equation: Residual rate=the concentration of the test compound in the sample after reaction/the concentration of the test compound in the sample immediately after reaction×100(%) The residual rates were plotted on a single logarithmic scale against reaction time to calculate loss rate constants. The test was repeated (n=2), and the obtained values were averaged.

[3] = system: spontaneously hypertensive rats; assay: Blood pressure and heart rate measurement in hypertensive rats; format: in vivo, rat; settings: continuous intravenous
Procedure: The blood pressures and heart rates of male spontaneously hypertensive rats were measured. On the day of measurement, indwelling of catheters for blood pressure•heart rate measurement and subject substance administration was carried out under anesthesia with ether. The back of the neck of each rat was incised, a feeding catheter (Atom Medical Corporation) filled with heparinized physiological saline was introduced from the back of the neck; the catheter was inserted into the common carotid artery and internal jugular vein; and the surgical incision was closed. The measurements were conducted in a Bollmann cage under the conscious state and evaluations were carried out after confirming that the individual parameters were stabilized. After confirming the stabilization of blood pressure and heart rate, the test compound was continuously administered intravenously at a flow rate of 5 mL/kg/h for 30 min.
The catheter drawn from the back of the neck was connected to a pressure transducer (DX-200, NIHON KOHDEN CORP.), and the blood pressures and heart rates were measured using a blood pressure amplifier (Gould instrument). The blood pressures and heart rates were recorded on recording paper using a recorder (LINEARCORDER WR3320, GRAPHTEC). The blood pressures and heart rates were converted into values on the recording paper before administration and 2.5, 5, 10, 15, 30, 45 and 60 min after administration. For each individual, rates of increase and decrease in the parameters were evaluated relative to the value before administration (value at 0 min).

cynomolgus monkeys = assay: Effects on cardiac function in anesthetized cynomolgus monkeys; format: in vivo, cynomolgus monkey; settings: continuous intravenous 30 min
Procedure: Cynomolgus monkeys were anesthetized with pentobarbital (at an initial dose of 20-30 mg/kg by intravenous administration; at a dose of 4-5 mg/kg/hr by intravenous continuous administration). A tracheal tube was inserted and experiments were carried out under artificial respiration (fresh air+pure oxygen, ventilatory volume: 10-15 mL/kg, ventilation frequency: 10-15 times/min). In the right lying position, the left thorax was opened between the fourth and fifth intercostal spaces. The […] (the origin of the left anterior descending artery or circumflex branch) and the origin of the ascending main artery were peeled off and transducers for blood flow measurement were located there. The blood flow rates were measured using an electronic blood flowmeter or an ultrasonic blood flowmeter. The blood pressures were measured using a pressure transducer in a state where a catheter was inserted into the right femoral artery. The left ventricular internal pressure was measured in a state where a catheter was inserted from the left carotid artery into the left ventricle. The electrocardiogram was measured using needle electrodes installed in the right armpit and the left thorax. After catheters for administration were inserted into the right and left cephalic veins and femoral veins, the test compound, pentobarbital (under anesthesia) or an aqueous solution (SOLITA T3 containing 1.2% NaHCO3) were administered therethrough. The test compound was continuously administered intravenously 30 min using a continuous infusion system. The blood pressure, left ventricular internal pressure, blood flow rate through the coronary artery and electrocardiogram data were simultaneously inputted to a PowerLab system (LabChart6, AD instruments) to measure/calculate average blood pressure, heart rate, average blood flow rate through the coronary artery, beat volume, stroke volume (beat volume/heart rate), maximum first deviation of the left ventricular internal pressure, total peripheral blood vessel resistance (average blood pressure/beat volume), cardiac performance (average blood pressure x beat volume) and double product (systolic arterial pressure x heart rate), which is indicative of myocardial oxygen consumption.
The averages of all evaluation parameters for 1 min were obtained before administration, immediately after administration, and 10 min, 20 min and 30 min after administration, and changes of the averages relative to the value measured before administration which is defined as 100% were calculated.

[4] = system: urinary excretion dysfunction models; assay: Urinary excretion dysfunction models, maximal urinary flow rate; format: in vivo; settings: 60 ng/kg/h continuous intravenous, cynomolgus monkey urinary excretion dysfunction model
Description: Urinary excretion dysfunction models were constructed in accordance with the following procedure. After anesthesia of cynomolgus monkeys, the region from the suprapubic area to the abdominal area was shaved, followed by fixing in a dorsal position. The shaved region was disinfected and the four legs were fixed. Using an electrosurgical knife, the skin region from the suprapubic area to the umbilical area and the peritoneal membrane were sequentially incised, followed by damage to the pelvic nerve and removal of the uterus. After the surgical operation, viccillin-containing physiological saline was added dropwise to the incised area. The peritoneal membrane and skin of the incised area were sutured with silk threads and disinfected. Viccillin was administered for 7 consecutive days after surgery. Meloxicam was administered once daily for 7 consecutive days to manage pain in the perioperative period.
The cynomolgus monkeys were seated on monkey chairs, followed by retention of the hands and legs with strings. Injectable water was administered orally, and physiological saline and the test compound (60 ng/kg/h) were continuously administered intravenously to allow urination freely. The maximal urinary flow rate was measured using a urine weighing sensor.

male rats = assay: Digestive symptoms after repeated oral administration; format: in vivo, rat; settings: 0.1 mg/kg oral, repeated for 4 days
Procedure: Using male rats, aged 6 weeks, general states of the rats were observed after repeating oral administration of the test compound at a dose of 0.1 mg/kg for 4 days. To a control, injectable water which is a medium was administered.

[5] = Parallel artificial membrane permeability assay (PAMPA); format: in vitro ADME; settings: sum of pH 5.0, 6.2 and 7.4, 25° C., read-out: membrane permeability coefficients (PAMPA(SUM))
Procedure: The permeability of the drugs through artificial membranes was measured by parallel artificial membrane permeability assay (PAMPA) under the following conditions. For the measurements, a PAMPA system (pION) was used. The membrane permeability was evaluated by measuring membrane permeability coefficients at three pH values and summing the values (PAMPA(SUM)(cm/sec)).
Lipid membrane: GIT-0 (pION)
Incubation temperature: 25° C.
Donor: 5% DMSO-containing buffer
Compound concentration: 50 μmol/L

C=C(C)CC[C@](C)(O)C/C=C/[C@H]1CCC(=O)[C@@H]1CCSc1nc(C(=O)O)cs1 [Comparative compound A, 2-[(2-{(1R,2R)-2-[(1E,4S)-4-hydroxy-4,7-dimethyl-1,7-octadien-1-yl]-5-oxocyclopentyl}ethyl)thio]-1,3-thiazole-4-carboxylic acid]
bladder capacity [1]: significant decrease | effect on the blood pressure (normal rats): tendency to increase | increase in blood pressure (normal rats; 1 mg/kg): about 10%

CCCCC[C@](C)(O)C/C=C/[C@H]1CCC(=O)[C@@H]1CCSc1nc(C(=O)O)cs1 [Comparative compound B, 2-[(2-{(1R,2R)-2-[(1E,4S)-4-hydroxy-4-methyl-1-nonen-1-yl]-5-oxocyclopentyl}ethyl)thio]-1,3-thiazole-4-carboxylic acid, reference compound]
Residual rate ([2]; Reaction time 0 h): 100% | Residual rate ([2]; Reaction time 0.5 h): 91.5% | Residual rate ([2]; Reaction time 1 h): 78.1% | Residual rate ([2]; Reaction time 1 h, listed as comparative compound B): ≤ 80% | Residual rate ([2]; Reaction time 2 h): 62.3% | Residual rate ([2]; Reaction time 2 h, listed as comparative compound B): about 60% | reduction of blood pressure ([3]; 100 ng/kg/min): about 10% | reduction of blood pressure ([3]; 300 ng/kg/min): about 25% | effect on the cardiac functions (cynomolgus monkeys): inhibitory effect | improvement in maximal urinary flow rate over the vehicle group [4]: 27% | effect on the blood pressure (normal rats): tendency to decrease | increase in heart rate (normal rats): about 20%

C[C@@](O)(C/C=C/[C@H]1CCC(=O)[C@@H]1CCSc1nc(C(=O)O)cs1)CCCC(F)(F)F [Comparative compound C, 2-[(2-{(1R,5R)-2-oxo-5-[(1E,4S)-8,8,8-trifluoro-4-hydroxy-4-methyl-1-octenyl]cyclopentyl}ethyl)thio]-1,3-thiazole-4-carboxylic acid]
digestive symptoms such as soft feces (male rats): soft feces were observed | effect on the blood pressure (normal rats): tendency to decrease | increase in heart rate (normal rats): about 20%

C[C@@](O)(C/C=C/[C@H]1COC(=O)N1CCSc1nc(C(=O)O)cs1)CCCC(F)(F)F [Comparative compound E, 2-[(2-{(4S)-2-oxo-4-[(1E,4S)-8,8,8-trifluoro-4-hydroxy-4-methyl-1-octenyl]-1,3-oxazolidin-3-yl}ethyl)sulfanyl]-1,3-thiazole-4-carboxylic acid, reference compound]
Papp at 4 hr, 50 μmol/L [5]: 0.6 ×10⁻⁶ cm/s
